Experimental data reported in patent US20200405697A1, “Antitumor Agent” (Taiho Pharmaceutical Co., Ltd, priority 2017, published 2020).

Biological target: T1, human RNR (histidine tagged human M1 and human M2 proteins) (Homo sapiens, UniProt P23921)
T1 construct: made in house; host or cells: Escherichia coli
T1 sequence (P23921 1-792): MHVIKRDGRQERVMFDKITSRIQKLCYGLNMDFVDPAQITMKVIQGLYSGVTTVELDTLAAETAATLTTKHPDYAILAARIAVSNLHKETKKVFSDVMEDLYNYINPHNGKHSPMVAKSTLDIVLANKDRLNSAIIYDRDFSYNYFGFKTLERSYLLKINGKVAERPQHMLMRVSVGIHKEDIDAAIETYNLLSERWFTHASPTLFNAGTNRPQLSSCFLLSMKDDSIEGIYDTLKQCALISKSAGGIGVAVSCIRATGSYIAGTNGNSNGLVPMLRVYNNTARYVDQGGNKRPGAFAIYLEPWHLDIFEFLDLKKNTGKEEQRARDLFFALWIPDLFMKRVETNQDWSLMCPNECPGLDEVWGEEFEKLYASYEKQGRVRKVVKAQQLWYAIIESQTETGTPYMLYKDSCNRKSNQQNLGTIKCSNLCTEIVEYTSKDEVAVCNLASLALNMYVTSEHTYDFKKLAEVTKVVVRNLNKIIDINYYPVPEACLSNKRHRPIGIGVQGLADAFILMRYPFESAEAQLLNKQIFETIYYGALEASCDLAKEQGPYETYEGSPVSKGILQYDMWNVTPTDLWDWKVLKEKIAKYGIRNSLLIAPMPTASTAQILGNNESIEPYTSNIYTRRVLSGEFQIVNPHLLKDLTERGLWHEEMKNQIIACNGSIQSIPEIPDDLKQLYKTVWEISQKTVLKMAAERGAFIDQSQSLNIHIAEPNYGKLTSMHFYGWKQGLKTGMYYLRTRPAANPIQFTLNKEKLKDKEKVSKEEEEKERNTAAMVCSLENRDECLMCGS
Assay: Human RNR inhibition effect (dCDP formation from CDP)
Format: biochemical
Conditions: 10 μM CDP, 37° C. for 30 minutes, read-out: RNR inhibitory activity IC50
Summary of the method: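 His-tagged human M1 (isoform 1) and N-terminal 59-aa-truncated M2 (isoform 2), E. coli-expressed, Ni-purified, preincubated 20 min with compound (1% DMSO). Reaction with 10 μM CDP, 2 mM ATP, 0.24 mM NADPH, 6 mM DTT, 4 mM Mg acetate, 100 mM KCl, 50 mM HEPES pH 7.2, 30 min at 37° C. dCDP formed quantified by reverse-phase HPLC after heat stop.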

How did the IC50 turn out when `Cc1ccc(F)c([C@@H](C)[C@H](NS(=O)(=O)c2ccc(Cl)c(-c3nnn[nH]3)c2)c2n[nH]c(=O)o2)c1C` [Example 161, 4-chloro-N-((1S,2R)-2-(6-fluoro-2,3-dimethylphenyl)-1-(5-oxo-4,5-dihydro-1,3,4-oxadiazol-2-yl)propyl)-3-(1H-tetrazol-5-yl)benzenesulfonamide] was run?
Its IC50 is 280 nM.

How did the IC50 turn out when `Cc1ccc(F)c([C@@H](C)[C@H](NS(=O)(=O)c2ccc(Cl)nc2C(N)=O)c2n[nH]c(=O)o2)c1C` [Example 19, 6-Chloro-3-(N-((1S,2R)-2-(6-fluoro-2,3-dimethylphenyl)-1-(5-oxo-4,5-dihydro-1,3,4-oxadiazol-2-yl)propyl)sulfamoyl)picolinamide] was run?
The IC50 was 190 nM.

With `Cc1ccc(F)c([C@@H](C)[C@H](NS(=O)(=O)c2ccc([N+](=O)[O-])cc2)c2n[nH]c(=O)o2)c1C` [Example 340, N-((1S,2R)-(6-fluoro-2,3-dimethylphenyl)-1-(5-oxo-4,5-dihydro-1,3,4-oxadiazol-2-yl)propyl)-4-nitrobenzenesulfonamide] as the molecule, how does the IC50 read?
The IC50 was 270 nM.

`COc1c(S(=O)(=O)N[C@H](c2n[nH]c(=O)o2)[C@H](C)c2c(F)ccc(C)c2C)ccc(Cl)c1C(C)OC(C)=O` (stereo partly drawn) [Example 144, 1-(6-chloro-3-(N-((1S,2R)-2-(6-fluoro-2,3-dimethylphenyl)-1-(5-oxo-4,5-dihydro-1,3,4-oxadiazol-2-yl)propyl)sulfamoyl)-2-methoxyphenyl)ethyl acetate] was tested. Which IC50 did it give?
Its IC50 is 170 nM.

With `COC(=O)c1cc(S(=O)(=O)N[C@H](c2n[nH]c(=S)o2)[C@H](C)c2cccc3c2CCC3)ccc1Cl` [Example 334, methyl 2-chloro-5-(N-((1S,2R)-2-(2,3-dihydro-1H-inden-4-yl)-1-(5-thioxo-4,5-dihydro-1,3,4-oxadiazol-2-yl)propyl)sulfamoyl)benzoate] as the molecule, how does the IC50 read?
The IC50 was 830 nM.

With `Cc1cccc(F)c1[C@H](C)[C@H](NS(=O)(=O)c1ccc(Cl)cc1C(N)=O)c1n[nH]c(=O)o1` [Example 23, 5-chloro-2-(N-((1S,2S)-2-(2-fluoro-6-methylphenyl)-1-(5-oxo-4,5-dihydro-1,3,4-oxadiazol-2-yl)propyl)sulfamoyl)benzainide] as the molecule, how does the IC50 read?
The IC50 was 740 nM.

`COc1c(S(=O)(=O)N[C@H](c2n[nH]c(=O)o2)[C@H](C)c2c(F)ccc(C)c2C)ccc(Cl)c1C(C)(C)O` [Example 212, 4-chloro-N-((1S,2R)-2-(6-fluoro-2,3-dimethylphenyl)-1-(5-oxo-4,5-dihydro-1,3,4-oxadiazol-2-yl)propyl)-3-(2-hydroxypropan-2-yl)-2-methoxybenzenesulfonamide] was tested. Which IC50 did it give?
The IC50 was 110 nM.

How did the IC50 turn out when `COc1c(S(=O)(=O)N[C@H](c2n[nH]c(=O)o2)[C@H](C)c2c(F)ccc(C)c2C)ccc(Cl)c1C(C)(C)OC(C)=O` [Example 108, 2-(6-chloro-3-(N-((1S,2R)-2-(6-fluoro-2,3-dimethylphenyl)-1-(5-oxo-4,5-dihydro-1,3,4-oxadiazol-2-yl)propyl)sulfamoyl)-2-methoxyphenyl)propan-2-ylacetate] was run?
The IC50 was 430 nM.

Which IC50 does the source give for `Cc1ccc(F)c([C@@H](C)[C@H](NS(=O)(=O)c2ccc(Br)cc2C#N)c2n[nH]c(=O)o2)c1C` [Example 92, 4-bromo-2-cyano-N-((1S,2R)-2-(6-fluoro-2,3-dimethylphenyl)-1-(5-oxo-4,5-dihydro-1,3,4-oxadiazol-2-yl)propyl)benzenesulfonamide] here?
The IC50 was 200 nM.

`Cc1ccc(F)c([C@@H](C)[C@H](NS(=O)(=O)c2ccc(C(F)(F)F)cc2C(N)=O)c2n[nH]c(=O)o2)c1C` [Example 41, 2-(N-((1S,2R)-2-(6-fluoro-2,3-dimethylphenyl)-1-(5-oxo-4,5-dihydro-1,3,4-oxadiazol-2-yl)propyl)sulfamoyl)-5-(trifluoromethyl)benzamide] was tested. Which IC50 did it give?
The IC50 was 100 nM.

`Cc1ccc(F)c([C@H](C)[C@H](NS(=O)(=O)c2ccc(Cl)cc2C(N)=O)c2n[nH]c(=O)o2)c1C` [Example 32, 5-chloro-2-(N-((1S,2S)-2-(6-fluoro-2,3-dimethylphenyl)-1-(5-oxo-4,5-dihydro-1,3,4-oxadiazol-2-yl)propyl)sulfamoyl)benzamide] was tested. Which IC50 did it give?
The IC50 was 790 nM.

Which IC50 does the source give for `Cc1c(Cl)ccc(F)c1[C@@H](C)[C@H](NS(=O)(=O)c1ccc(F)c2c1OCCC2(C)O)c1n[nH]c(=O)o1` (single isomer, unassigned) [Example 229A] here?
The IC50 was 60 nM.

Which IC50 does the source give for `CC(=O)OC1(C(F)(F)F)CCOc2c1cccc2S(=O)(=O)N[C@H](c1n[nH]c(=O)o1)[C@H](C)c1c(F)ccc(C)c1C` (stereo partly drawn) [Example 106, 8-(N-((1S,2R)-2-(6-fluoro-2,3-dimethylphenyl)-1-(5-oxo-4,5-dihydro-1,3,4-oxadiazol-2-yl)propyl)sulfamoyl)-4-(tifluoromethyl)chroman-4-ylacetate] here?
Its IC50 is 270 nM.

For `Cc1ccc(F)c([C@@H](C)[C@H](NS(=O)(=O)c2ccc(C(F)(F)F)c3c2OCCC3O)c2n[nH]c(=O)o2)c1C` (single isomer, unassigned) [Example 244B], which IC50 is on record?
The IC50 was 220 nM.

Which IC50 does the source give for `Cc1ccc(F)c([C@@H](C)[C@H](NS(=O)(=O)c2cccc3[nH]ccc23)c2n[nH]c(=O)o2)c1C` [Example 152, N-((1S,2R)-2-(6-fluoro-2,3-dimethylphenyl)-1-(5-oxo-4,5-dihydro-1,3,4-oxadiazol-2-yl)propyl)-1H-indole-4-sulfonamide] here?
Its IC50 is 710 nM.

How did the IC50 turn out when `Cc1ccc(F)c([C@@H](C)[C@H](NS(=O)(=O)c2cc([N+](=O)[O-])c(Cl)cc2C(N)=O)c2n[nH]c(=O)o2)c1C` [Example 262, 5-chloro-2-(N-((1S,2R)-2-(6-fluoro-2,3-dimethylphenyl)-1-(5-oxo-4,5-dihydro-1,3,4-oxadiazol-2-yl)propyl)sulfamoyl)-4-nitrobenzamide] was run?
Its IC50 is 130 nM.

For `Cc1ccc(F)c([C@@H](C)[C@H](NS(=O)(=O)c2ccc(Cl)c(C(C)(C)O)n2)c2n[nH]c(=O)o2)c1C` [Example 193, 5-chloro-N-((1S,2R)-2-(6-fluoro-2,3-dimethylphenyl)-1-(5-oxo-4,5-dihydro-1,3,4-oxadiazol-2-yl)propyl)-6-(2-hydroxypropan-2-yl)pyridine-2-sulfonamide], which IC50 is on record?
The IC50 was 90 nM.

Which IC50 does the source give for `Cc1c(Cl)ccc(F)c1[C@@H](C)[C@H](NS(=O)(=O)c1ccc(F)c2c1OCCC2(C)O)c1n[nH]c(=O)o1` (single isomer, unassigned) [Example 229B] here?
Its IC50 is 110 nM.

For `Cc1ccc(F)c([C@@H](C)[C@H](NS(=O)(=O)c2ccc(Cl)c(C(=O)N3CCCC3)n2)c2n[nH]c(=O)o2)c1C` [Example 114, 5-chloro-N-((1S,2R)-2-(6-fluoro-2,3-dimethylphenyl)-1-(5-oxo-4,5-dihydro-1,3,4-oxadiazol-2-yl)propyl)-6-(pyrrolidine-1-carbonyl)pyridine-2-sulfonamide], which IC50 is on record?
The IC50 was 60 nM.

For `COC(=O)c1c(F)ccc(S(=O)(=O)N[C@H](c2n[nH]c(=O)o2)[C@H](C)c2c(F)ccc(C)c2C)c1F` [Example 178, methyl 2,6-difluoro-3-(N-((1S,2R)-2-(6-fluoro-2,3-dimethylphenyl)-1-(5-oxo-4,5-dihydro-1,3,4-oxadiazol-2-yl)propyl)sulfamoyl)benzoate], which IC50 is on record?
Its IC50 is 170 nM.

For `Cc1ccc(F)c([C@@H](C)[C@H](NS(=O)(=O)c2ccc(Cl)cc2N)c2n[nH]c(=O)o2)c1C` [Example 271, 2-amino-4-chloro-N-((1S,2R)-2-(6-fluoro-2,3-dimethylphenyl)-1-(5-oxo-4,5-dihydro-1,3,4-oxadiazol-2-yl)propyl)benzenesulfonamide], which IC50 is on record?
The IC50 was 230 nM.
